The source of these data is PMC9959130, “Effects of Side Chain and Peptide Bond Modifications on the Targeting Properties of Stabilized Minigastrin Analogs” (Pharmaceuticals, 2023).

Like-named read-outs stand apart in the source and are kept apart here.

One series in a line: Complex stability in PBS. The class given is physicochemical. The note with it: 1000 pmol/mL in PBS, room temperature, 4 h after incubation, n = 1. As to the method:
In vitro stability studies were performed in human serum (n = 2). The radiolabeled peptides (1000 pmol/mL) were incubated at 37 °C and a sample of 100 μL was taken at 1, 4, and 24 h after incubation. After the precipitation of proteins with ACN at 1:1.5 (v/v), centrifugation (14,000 rpm, 2 min, centrifuge 5424, Eppendorf AG, Germany) and dilution with water at 1:1 (v/v), an aliquot of 100 μL of this solution was analyzed by HPLC. Radioligand breakdown was monitored and the percentage of intact radiopeptide was calculated using Chromeleon Dionex Software (Version 7.2.9.11323). Additionally, the radiolabeled peptides (1000 pmol/mL) were incubated in PBS (n = 1) at room temperature to confirm the complex stability as a control.

The nature of series [1]: Biodistribution in BALB/c nude mice bearing A431-CCK2R/A431-mock xenografts. The series is classed as in vivo. The note with it: female, mouse, iv, 20 pmol, total radioactivity, 20 pmol, gallium-68, 1 h p.i., mean ± SD n = 4; for tissue uptake at 1 h: xenografted BALB/c nude mice, i.v.; for tissue to tissue ratio at 1 h: BALB/c nude mice. How it is done: The overall biodistribution and tumor targeting properties of selected radiolabeled peptides were evaluated in female athymic BALB/c nude mice (Charles River, Sulzfeld, Germany, age of 7 to 9 weeks). After tumor induction with 2 × 10^6 A431-CCK2R or A431-mock cells (subcutaneously injected in 200 μL DMEM into the right and left flank) and a waiting period of 10–14 days (sufficient to achieve tumors of ∼0.25 g), mice were randomly divided into groups of four and treated with a bolus injection of 150 µL of the injectable solution containing the radiolabeled peptide via a lateral tail vein to achieve an injected radioactivity of 150–200 kBq and a total injected peptide amount of ~20 pmol (n = 4 for each radiopeptide). For DOTA-[(N-Me)1Nal^8]MGS5, additional biodistribution studies were performed with gallium-68 (~0.5 MBq, 20 pmol) and lutetium-177 (~0.5 MBq, 20 pmol). The animals were euthanatized by cervical dislocation at 1 h (gallium-68) or 4 h p.i. (indium-111/ lutetium-177). The tumors and other tissues (blood, lung, heart, muscle, spleen, intestine, liver, kidney, stomach, and pancreas) were dissected, weighed, and the radioactivity measured in the γ-counter. The rest of the body and a standard of the solution injected was also measured together with the collected samples. The percentage of injected activity per gram of tissue (% IA/g) and the tumor-to-organ activity ratio of selected tissues were calculated for each mouse and time point studied. Origin software (Microcal Origin 6.1, Northampton, MA, USA) was used for statistical analysis (independent t-test for two populations; significance level p < 0.05).

A short description of series [2]: Distribution coefficient (LogD) in octanol/PBS. The class given is physicochemical. The conditions noted are these: radiolabeled peptide (111In-labeled where the label names no radiometal); shake-flask octanol/PBS, 100 pmol/mL, 15 min shaking at 1500 rpm, γ-counter; mean ± SD, n = 8. How it is done: The distribution coefficient (LogD) in octanol/PBS was determined by mixing 0.5 mL of the radiolabeled DOTA peptides diluted in PBS (100 pmol/mL) and 0.5 mL octanol in a 1.5 mL microcentrifuge tube (n = 8). After shaking for 15 min (MS3 Basic, IKA, Staufen, Germany) at 1500 rpm and a waiting time of 10 min to ensure appropriate separation of the two phases, 100 µL aliquots of each phase were pipetted into 4.5 mL tubes. The tubes were measured using a γ-counter (2480 Wizard2 3″, PerkinElmer Life Sciences and Analytical Instruments, formerly Wallac Oy, Turku, Finland) and the LogD value was determined using following equation: LogD=Log(cpmoctanol phase/cpmPBS phase)

Series [3] is described as follows: Metabolic studies in BALB/c mice (intact radiopeptide by radio-HPLC). The note with it: i.v., 2 nmol, 10 min p.i., two animals per peptide. The class given is in vivo. How it is done: All animal experiments were approved by the Austrian Ministry of Science (BMWF-66.011/0075- WF/V/3b/2016) and performed in accordance with the Austrian Animal Protection Act. Metabolic studies characterizing the stability of selected radioligands against enzymatic degradation were carried out in 7 to 8 week old female BALB/c mice (Charles River, Sulzfeld, Germany). The mice (two animals for each peptide) were intravenously injected into a lateral tail vein with 5–10 MBq of the ^111In-labeled peptide derivatives, corresponding to 2 nmol total peptide. At the time point of 10 min p.i. the animals were euthanatized by cervical dislocation. A sample of urine and blood was immediately collected. Liver and kidneys were dissected, mixed with 20 mM HEPES buffer pH 7.3 (1:1, w/v) and homogenized using an Ultra-Turrax T8 homogenizer (IKA-Werke, Staufen, Germany) for 1 min. All samples taken were analyzed by analytical HPLC using the low-sensitivity loop for urine and the high-sensitivity loop for blood, liver and kidney. Before injection into the HPLC system, all samples except urine were treated with ACN and diluted with water as described for stability studies in human serum. The percentage of intact radiopeptide in the analyzed samples was calculated by integration of the different peaks found in the radiochromatogram using Chromeleon Dionex Software (Version 7.2.9.11323).

For `CCCC[C@@H](C(=O)N[C@@H](CC(=O)O)C(=O)N(C)[C@@H](Cc1cccc2ccccc12)C(N)=O)N(C)C(=O)[C@H](Cc1c[nH]c2ccccc12)NC(=O)CNC(=O)[C@H](Cc1ccc(O)cc1)NC(=O)[C@H](C)NC(=O)[C@@H](CCC(=O)O)NC(=O)CN1CCN(CC(=O)O)CCN(CC(=O)O)CCN(CC(=O)O)CC1` [[^68Ga]Ga-DOTA-[(N-Me)1Nal^8]MGS5, metal not drawn], in “Complex stability in PBS”, the “Stability of the DOTA-complex in PBS” value stood at 99.2%. For the same compound, the tissue uptake at 1 h in series [1] (BALB/c nude, heart, read-out: Uptake in heart) stood at 0.95 ± 0.32 %ID/g; in series [1] (BALB/c nude, intestine, read-out: Uptake in intestine), 0.82 ± 0.18 %ID/g; in series [1] (BALB/c nude, lung, read-out: Uptake in lung), 1.61 ± 0.42 %ID/g; in series [1] (BALB/c nude, muscle, read-out: Uptake in muscle), 0.45 ± 0.08 %ID/g; in series [1] (BALB/c nude, spleen, read-out: Uptake in spleen) it was 1.19 ± 0.25 %ID/g; in series [1] (athymic BALB/c nude, A431-CCK2R xenograft, read-out: Uptake in A431-CCK2R xenograft), 15.7 ± 2.21 %ID/g. In addition, the tissue uptake at 1 h is 1.51 ± 0.98 %ID/g in series [1] (athymic BALB/c nude, A431-mock xenograft, read-out: Uptake in A431-mock xenograft); 2.82 ± 0.88 %ID/g in series [1] (athymic BALB/c nude, blood, read-out: Uptake in blood); 7.7 ± 3.1 %ID/g in series [1] (athymic BALB/c nude, kidneys, read-out: Uptake in kidneys); 2.25 ± 0.55 %ID/g in series [1] (athymic BALB/c nude, liver, read-out: Uptake in liver); 0.87 ± 0.29 %ID/g in series [1] (athymic BALB/c nude, pancreas, read-out: Uptake in pancreas); 1.63 ± 0.41 %ID/g in series [1] (athymic BALB/c nude, stomach, read-out: Uptake in stomach). Further, the tissue to tissue ratio at 1 h is 6.03 ± 2.26 in series [1] (athymic BALB/c nude, A431-CCK2R xenograft / blood, A431-CCK2R xenograft, read-out: tumor-to-organ ratio: blood); 2.36 ± 1.14 in series [1] (athymic BALB/c nude, A431-CCK2R xenograft / kidney, A431-CCK2R xenograft, read-out: tumor-to-organ ratio: kidney); 10.2 ± 3.5 in series [1] (athymic BALB/c nude, A431-CCK2R xenograft / stomach, A431-CCK2R xenograft, read-out: tumor-to-organ ratio: stomach). Further, the LogD in series [2] is given as −2.2 ± 0.1.

As for `CCCC[C@@H](C(=O)N[C@@H](CC(=O)O)C(=O)N(C)[C@@H](Cc1cccc2ccccc12)C(N)=O)N(C)C(=O)[C@H](Cc1c[nH]c2ccccc12)NC(=O)CNC(=O)[C@H](Cc1ccc(O)cc1)NC(=O)[C@H](C)NC(=O)[C@@H](CCC(=O)O)NC(=O)CN1CCN(CC(=O)O)CCN(CC(=O)O)CCN(CC(=O)O)CC1` [[^111In]In-DOTA-[(N-Me)1Nal^8]MGS5] [metal not drawn], the “Stability of the DOTA-complex in PBS” value in the series “Complex stability in PBS” is 96.2%. In series [3] (kidney homogenate), the “Intact radiopeptide in kidney” value is listed as 40.2 ± 4.1%. In series [3] (liver homogenate), the “Intact radiopeptide in liver” value is 94.9 ± 2.8%. Also, in series [3], the “Intact radiopeptide in blood” value was found to be 98.4 ± 0.1% and the “Intact radiopeptide in urine” value was 15.9 ± 3.4%.
